Source: patent publication US20260166128A1, “HUMAN AMYLIN ANALOG, AND DERIVATIVE THEREOF AND USE THEREOF” (priority 2022, published 2026)
Numbered stars: 1 amine (or outer) side, 2 acyl side, 3 side chain; on linkers, the order of the positions; unused ones are H or OH. Bridge positions count the residues as written; N and C are the ends. Square brackets hold non-standard residues; d marks the D form. Side chains are listed from the residue outwards. Peptide text beside a SMILES is read from it. * marks the point of attachment. C20 diacid = O=C(O)CCCCCCCCCCCCCCCCCCC(=O)*; γGlu = O=C(O)[C@H](CCC(=O)[*:2])N[*:1]; Hyp = O=C(O)[C@@H]1C[C@@H](O)CN1; Aad = N[C@@H](CCCC(=O)O)C(=O)O; Dab = NCC[C@H](N)C(=O)O; AEEA = NCCOCCOCC(=O)O

Columns and labels:
human amylin receptor = molecular target: T1, human amylin receptor (Homo sapiens, UniProt O60896+P30988); assay: Luciferase assay of amylin derivatives in amylin receptor/CRE-luc CHO cell line; type: cell-based; conditions: CHO-K1/Ga15/AMY3 CRE-luc cells, 24 hours incubation, F12 medium containing 10% FBS; read-out: EC50
T1 construct: host or cells: CHO-K1/Ga15/AMY3 cells, further stably transfected with a CRE-luciferase plasmid
T1 sequence (P30988 25-474): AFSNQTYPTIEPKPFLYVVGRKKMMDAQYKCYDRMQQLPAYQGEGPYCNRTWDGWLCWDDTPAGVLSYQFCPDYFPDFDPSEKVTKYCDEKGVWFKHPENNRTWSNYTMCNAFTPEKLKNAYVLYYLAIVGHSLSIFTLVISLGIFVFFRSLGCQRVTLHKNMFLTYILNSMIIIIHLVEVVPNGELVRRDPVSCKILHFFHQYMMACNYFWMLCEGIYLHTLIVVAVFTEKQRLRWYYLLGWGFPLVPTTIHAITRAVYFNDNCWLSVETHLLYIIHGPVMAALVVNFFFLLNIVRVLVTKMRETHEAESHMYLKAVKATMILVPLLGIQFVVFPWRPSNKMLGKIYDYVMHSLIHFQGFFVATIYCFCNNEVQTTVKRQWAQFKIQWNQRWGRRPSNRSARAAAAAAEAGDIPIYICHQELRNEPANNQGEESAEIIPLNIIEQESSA
T1 sequence (O60896 24-148 partner): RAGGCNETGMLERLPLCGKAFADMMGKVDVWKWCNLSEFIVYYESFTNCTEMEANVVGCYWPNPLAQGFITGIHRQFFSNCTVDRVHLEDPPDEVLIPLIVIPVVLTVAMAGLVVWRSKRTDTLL
Description: The experiment was intended to detect the activity or efficacy of the amylin derivatives on a human amylin receptor in vitro by luciferase assay.
50 μL of growth medium (F12 medium containing 10% FBS) was added into each well of a white 96-well plate, and the stably transfected amylin/CRE-lue CHO cells were inoculated into the white 96-well plate at a density of about 20,000 cells/well for activity determination.

[1] = Freeze-thaw stability of derivatives (freeze-thaw yield by liquid chromatography); type: physicochemical; conditions: for Dissolution property: appearance after dissolution at 0.2 mg/ml in 20 mM phosphate buffer solution (PB) (pH 7.0); for Freeze storage property: appearance after overnight storage at −20° C. and thawing to room temperature, 0.2 mg/ml in 20 mM PB (pH 7.0); for Freeze storage yield: concentration of polypeptide after freezing and thawing / concentration before, by liquid chromatography, −20° C. overnight
Outline: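 Freeze-thaw yield is the ratio of peptide concentration after versus before one overnight −20° C freeze and room-temperature thaw, both quantified by RP-HPLC of supernatant after centrifugation. Samples were 0.2 mg/ml freeze-dried derivative in 20 mM PB, pH 7.0.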

With `CC[C@H](C)[C@H](NC(=O)[C@@H]1CCCN1C(=O)[C@H](CCCCNC(=O)CC[C@H](NC(=O)CCCCCCCCCCCCCCCCCCC(=O)O)C(=O)O)NC(=O)[C@H](CC(C)C)NC(=O)[C@H](CC(N)=O)NC(=O)[C@H](CC(N)=O)NC(=O)[C@H](CO)NC(=O)[C@H](CO)NC(=O)[C@H](Cc1c[nH]cn1)NC(=O)[C@H](CCCNC(=N)N)NC(=O)[C@H](CC(C)C)NC(=O)[C@H](Cc1ccccc1)NC(=O)[C@H](CCN)NC(=O)[C@H](C)NC(=O)[C@H](CC(C)C)NC(=O)[C@H](CCCNC(=N)N)NC(=O)[C@H](CCC(N)=O)NC(=O)[C@@H](NC(=O)[C@H](C)NC(=O)[C@@H]1CSSC[C@H](NC(=O)[C@@H](N)CCCNC(=N)N)C(=O)N[C@@H](CC(N)=O)C(=O)N[C@@H]([C@@H](C)O)C(=O)N[C@@H](C)C(=O)N[C@@H]([C@@H](C)O)C(=O)N1)[C@@H](C)O)C(=O)N[C@@H](CC(C)C)C(=O)N1CCC[C@H]1C(=O)N1CCC[C@H]1C(=O)N[C@H](C(=O)N[C@@H](CC(N)=O)C(=O)N[C@H](C(=O)NCC(=O)N[C@@H](CO)C(=O)N[C@@H](CC(N)=O)C(=O)N[C@H](C(=O)N1CCC[C@H]1C(N)=O)[C@@H](C)O)C(C)C)[C@@H](C)O` [PD044] (H-RCNTATCATQRLA[Dab]FLRHSSNNLK([γGlu-C20 diacid])PILPPTNVGSNTP-NH2; disulfide 2-7 (inferred)) the EC50 (human amylin receptor) was 2.62 nM, the Dissolution property [1] was “Clear” and the Freeze storage property [1] was “Clear”. For the same molecule, the Freeze storage yield [1] was 84.90%.
In the case of `CC[C@H](C)[C@H](NC(=O)[C@@H]1CCCN1C(=O)[C@H](CCCCNC(=O)CC[C@H](NC(=O)CCCCCCCCCCCCCCCCCCC(=O)O)C(=O)O)NC(=O)[C@H](CC(C)C)NC(=O)[C@H](CC(N)=O)NC(=O)[C@H](CC(N)=O)NC(=O)[C@H](CO)NC(=O)[C@H](CO)NC(=O)[C@H](Cc1c[nH]cn1)NC(=O)[C@H](CCCNC(=N)N)NC(=O)[C@H](CC(C)C)NC(=O)[C@H](Cc1ccccc1)NC(=O)[C@H](CCCC(=O)O)NC(=O)[C@H](C)NC(=O)[C@H](CC(C)C)NC(=O)[C@H](CCCNC(=N)N)NC(=O)[C@H](CCC(N)=O)NC(=O)[C@@H](NC(=O)[C@H](C)NC(=O)[C@@H]1CSSC[C@H](NC(=O)[C@@H](N)CCCNC(=N)N)C(=O)N[C@@H](CC(N)=O)C(=O)N[C@@H]([C@@H](C)O)C(=O)N[C@@H](C)C(=O)N[C@@H]([C@@H](C)O)C(=O)N1)[C@@H](C)O)C(=O)N[C@@H](CC(C)C)C(=O)N1CCC[C@H]1C(=O)N1CCC[C@H]1C(=O)N[C@H](C(=O)N[C@@H](CC(N)=O)C(=O)N[C@H](C(=O)NCC(=O)N[C@@H](CO)C(=O)N[C@@H](CC(N)=O)C(=O)N[C@H](C(=O)N1CCC[C@H]1C(N)=O)[C@@H](C)O)C(C)C)[C@@H](C)O` [PD043] (H-RCNTATCATQRLA[Aad]FLRHSSNNLK([γGlu-C20 diacid])PILPPTNVGSNTP-NH2; disulfide 2-7 (inferred); N-terminus assumed), the EC50 (human amylin receptor) is reported as 1.13 nM, the Dissolution property [1] is reported as “Clear” and the Freeze storage property [1] is reported as “Clear”. It also gave a Freeze storage yield [1] of 49.45%.
For `CC[C@H](C)[C@H](NC(=O)[C@@H]1CCCN1C(=O)[C@H](CCCCNC(=O)CC[C@H](NC(=O)CCCCCCCCCCCCCCCCCCC(=O)O)C(=O)O)NC(=O)[C@H](CC(C)C)NC(=O)[C@H](CC(N)=O)NC(=O)[C@H](CC(N)=O)NC(=O)[C@H](CO)NC(=O)[C@H](CO)NC(=O)[C@H](Cc1c[nH]cn1)NC(=O)[C@H](CCCNC(=N)N)NC(=O)[C@H](CC(C)C)NC(=O)[C@H](Cc1ccccc1)NC(=O)[C@H](CCC(=O)O)NC(=O)[C@H](C)NC(=O)[C@H](CC(C)C)NC(=O)[C@H](CCCNC(=N)N)NC(=O)[C@H](CCC(N)=O)NC(=O)[C@@H](NC(=O)[C@H](C)NC(=O)[C@@H]1CSSC[C@H](NC(=O)[C@@H](N)CCCNC(=N)N)C(=O)N[C@@H](CC(N)=O)C(=O)N[C@@H]([C@@H](C)O)C(=O)N[C@@H](C)C(=O)N[C@@H]([C@@H](C)O)C(=O)N1)[C@@H](C)O)C(=O)N[C@@H](CC(C)C)C(=O)N1CCC[C@H]1C(=O)N1CCC[C@H]1C(=O)N[C@H](C(=O)N[C@@H](CC(N)=O)C(=O)N[C@H](C(=O)NCC(=O)N[C@@H](CO)C(=O)N[C@@H](CC(N)=O)C(=O)N[C@H](C(=O)N[C@@H](Cc1ccc(O)cc1)C(N)=O)[C@@H](C)O)C(C)C)[C@@H](C)O` [PD017] (H-RCNTATCATQRLAEFLRHSSNNLK([γGlu-C20 diacid])PILPPTNVGSNTY-NH2; disulfide 2-7 (inferred); N-terminus assumed), the EC50 (human amylin receptor) was 0.772 nM, the Dissolution property [1] was “Clear” and the Freeze storage property [1] was “Muddy”. The Freeze storage yield [1] was 100.81%.
In the case of `CC[C@H](C)[C@H](NC(=O)[C@@H]1CCCN1C(=O)CNC(=O)[C@H](CC(C)C)NC(=O)[C@H](CC(N)=O)NC(=O)[C@H](CCCCNC(=O)COCCOCCNC(=O)CC[C@H](NC(=O)CCCCCCCCCCCCCCCCCCC(=O)O)C(=O)O)NC(=O)[C@H](CO)NC(=O)[C@H](CO)NC(=O)[C@H](Cc1c[nH]cn1)NC(=O)[C@H](CCCNC(=N)N)NC(=O)[C@H](CC(C)C)NC(=O)[C@H](Cc1ccccc1)NC(=O)[C@H](CC(=O)O)NC(=O)[C@H](C)NC(=O)[C@H](CC(C)C)NC(=O)[C@H](CCCNC(=N)N)NC(=O)[C@H](CCC(N)=O)NC(=O)[C@@H](NC(=O)[C@H](C)NC(=O)[C@@H]1CSSC[C@H](NC(=O)[C@@H](N)CCCNC(=N)N)C(=O)N[C@@H](CC(N)=O)C(=O)N[C@@H]([C@@H](C)O)C(=O)N[C@@H](C)C(=O)N[C@@H]([C@@H](C)O)C(=O)N1)[C@@H](C)O)C(=O)N[C@@H](CC(C)C)C(=O)N1CCC[C@H]1C(=O)N1CCC[C@H]1C(=O)N[C@H](C(=O)N[C@@H](CC(N)=O)C(=O)N[C@H](C(=O)NCC(=O)N[C@@H](CO)C(=O)N[C@@H](CC(N)=O)C(=O)N[C@H](C(=O)N1C[C@H](O)C[C@H]1C(N)=O)[C@@H](C)O)C(C)C)[C@@H](C)O` [PD114] (H-RCNTATCATQRLADFLRHSSK([AEEA-γGlu-C20 diacid])NLGPILPPTNVGSNT[Hyp]-NH2; disulfide 2-7 (inferred); N-terminus assumed), the EC50 (human amylin receptor) is reported as 0.029 nM, the Dissolution property [1] is reported as “Clear” and the Freeze storage property [1] is reported as “Clear”. It also gave a Freeze storage yield [1] of 101.02%.
For `CC[C@H](C)[C@H](NC(=O)[C@@H]1CCCN1C(=O)CNC(=O)[C@H](Cc1ccccc1)NC(=O)[C@H](CC(N)=O)NC(=O)[C@H](CC(N)=O)NC(=O)[C@H](CO)NC(=O)[C@H](CO)NC(=O)[C@H](Cc1c[nH]cn1)NC(=O)[C@H](CCCNC(=N)N)NC(=O)[C@H](CC(C)C)NC(=O)[C@H](Cc1ccccc1)NC(=O)[C@H](CCC(=O)O)NC(=O)[C@H](C)NC(=O)[C@H](CC(C)C)NC(=O)[C@H](CCCNC(=N)N)NC(=O)[C@H](CCC(N)=O)NC(=O)[C@@H](NC(=O)[C@H](C)NC(=O)[C@@H]1CSSC[C@H](NC(=O)[C@@H](N)CCCCNC(=O)CC[C@H](NC(=O)CCCCCCCCCCCCCCCCCCC(=O)O)C(=O)O)C(=O)N[C@@H](CC(N)=O)C(=O)N[C@@H]([C@@H](C)O)C(=O)N[C@@H](C)C(=O)N[C@@H]([C@@H](C)O)C(=O)N1)[C@@H](C)O)C(=O)N[C@@H](CC(C)C)C(=O)N1CCC[C@H]1C(=O)N1CCC[C@H]1C(=O)N[C@H](C(=O)N[C@@H](CC(N)=O)C(=O)N[C@H](C(=O)NCC(=O)N[C@@H](CO)C(=O)N[C@@H](CC(N)=O)C(=O)N[C@H](C(=O)N1CCC[C@H]1C(N)=O)[C@@H](C)O)C(C)C)[C@@H](C)O` [PD066], the EC50 (human amylin receptor) was 0.044 nM, the Dissolution property [1] was “Clear” and the Freeze storage property [1] was “Clear”. It also gave a Freeze storage yield [1] of 93.44%.
For `CC[C@H](C)[C@H](NC(=O)[C@@H]1CCCN1C(=O)CNC(=O)[C@H](Cc1ccccc1)NC(=O)[C@H](CC(N)=O)NC(=O)[C@H](CC(N)=O)NC(=O)[C@H](CO)NC(=O)[C@H](CO)NC(=O)[C@H](Cc1c[nH]cn1)NC(=O)[C@H](CCCNC(=N)N)NC(=O)[C@H](CC(C)C)NC(=O)[C@H](Cc1ccccc1)NC(=O)[C@H](CC(=O)O)NC(=O)[C@H](C)NC(=O)[C@H](CC(C)C)NC(=O)[C@H](CCCNC(=N)N)NC(=O)[C@H](CCC(N)=O)NC(=O)[C@@H](NC(=O)[C@H](C)NC(=O)[C@@H]1CSSC[C@H](NC(=O)[C@H](CCCCN)NC(=O)CC[C@H](NC(=O)CCCCCCCCCCCCCCCCCCC(=O)O)C(=O)O)C(=O)N[C@@H](CC(N)=O)C(=O)N[C@@H]([C@@H](C)O)C(=O)N[C@@H](C)C(=O)N[C@@H]([C@@H](C)O)C(=O)N1)[C@@H](C)O)C(=O)N[C@@H](CC(C)C)C(=O)N1CCC[C@H]1C(=O)N1CCC[C@H]1C(=O)N[C@H](C(=O)N[C@@H](CC(N)=O)C(=O)N[C@H](C(=O)NCC(=O)N[C@@H](CO)C(=O)N[C@@H](CC(N)=O)C(=O)N[C@H](C(=O)N1C[C@H](O)C[C@H]1C(N)=O)[C@@H](C)O)C(C)C)[C@@H](C)O` [PD067] ({C20 diacid-γGlu}-KCNTATCATQRLADFLRHSSNNFGPILPPTNVGSNT[Hyp]-NH2; disulfide 2-7 (inferred)), the EC50 (human amylin receptor) was 0.034 nM, the Dissolution property [1] was “Clear” and the Freeze storage property [1] was “Clear”. The Freeze storage yield [1] was 98.84%.
